The text below walks through data of ChEMBL document CHEMBL5726339, “Ether compounds for treatment of complement mediated disorders” (2017).

The target in this assay is Complement factor D (Homo sapiens, UniProt P00746). In words: Enzyme Assay: Human factor D (purified from human serum, Complement Technology, Inc.) at 80 nM final concentration is incubated with test compound at various concentrations for 5 minutes at room temperature in 50 mM Tris, 1M NaCl, pH 7.5. A synthetic substrate Z-L-Lys-SBzl and DTNB (Ellman's reagent) are added to final concentrations of 100 µM each. The increase in color is recorded at OD405 nm in a microplate in kinetic mode over 30 minutes with 30 second time points in a […]. IC50 values are calculated by non-linear regression from the percentage of inhibition of complement factor D activity as a function of test compound concentration.
Sequence of Complement factor D (P00746 whole entry): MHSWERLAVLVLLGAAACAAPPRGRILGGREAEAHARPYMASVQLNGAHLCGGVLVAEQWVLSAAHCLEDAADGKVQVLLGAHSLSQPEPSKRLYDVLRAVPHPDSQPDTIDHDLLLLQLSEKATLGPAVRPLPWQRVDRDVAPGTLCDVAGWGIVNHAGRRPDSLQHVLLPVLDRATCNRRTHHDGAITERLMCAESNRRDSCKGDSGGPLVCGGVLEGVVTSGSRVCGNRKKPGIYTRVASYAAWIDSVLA

For orientation: IC50 means the concentration that inhibits the measured activity by half. `CC(=O)c1cn(CC(=O)N2C[C@H](F)C[C@H]2C(=O)Nc2cccc(Br)n2)c2ccc(Oc3ncc(Br)cn3)cc12`: the IC50 was less than 1 µM.
Turning to `CC(=O)c1cn(CC(=O)N2[C@@H]3C[C@@H]3C[C@H]2C(=O)Nc2cccc(-c3ccccc3Cl)c2F)c2ccc(Oc3ncc(Br)cn3)cc12`, the IC50 is less than 1 µM.
